Our source for the TGI values is PubChem BioAssay (NCI).

Common to all, as to test: NCI anticancer screen, dose series, 48 h
Test [1] concerns OVCAR-5 ovarian.
Test [2] relates to A549 NSCLC.
Test [3] relates to ACHN renal.
The subject of test [4] is LOX IMVI melanoma.
The subject of test [5] is TK-10 renal.
Test [6] concerns MALME-3M melanoma.
Test [7] relates to U251 CNS.
Test [8] concerns SF-268 CNS.
For test [9], the system named is DU-145 prostate.
For test [10], the system named is HCC-2998 colon.
The subject of test [11] is MDA-N.
The test system of test [12] is MOLT-4 leukemia.
Test [13] deals with OVCAR-8 ovarian.
Test [14] concerns UACC-257 melanoma.
For test [15], the system named is HCT-15 colon.
Test [16] has as its system SK-MEL-28 melanoma.
Test [17] has as its system RPMI-8226 leukemia.
Test [18] relates to MDA-MB-231 breast.
Test [19] has as its system SK-MEL-2 melanoma.
Test [20] deals with NCI/ADR-RES ovarian.

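Assay format: 96-well plates, 48-hour exposure. TGI marks complete inhibition of growth.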

Turning to `O=C1c2cn[nH]c2N=C(Nc2ccccc2)C1N=Cc1ccc([N+](=O)[O-])cc1` (stereo not given), the TGI in test [1], in test [2], in test [3], in test [4], in test [5] and in test [6] was greater than 10 µM throughout. Moreover, the TGI in test [7], in test [8], in test [9], in test [10], in test [11] and in test [12] was greater than 10 µM in each case. Besides, the TGI in test [13] and in [14] was greater than 10 µM each time.
Consider `O=C1CCCCCCCCCCC1CN1CCOCC1` (stereo not given), for which the TGI in [1], in test [2], in test [3], in test [15], in test [16] and in test [5] was greater than 100 µM each time. In addition, the TGI in test [6], in test [7], in test [8], in [9], in [10] and in [11] was greater than 100 µM throughout. Also, the TGI in test [12], in test [17], in [18], in test [13] and in [14] was greater than 100 µM each time.
As to `CCOC(=O)C(NC(=O)c1cccc(Cl)c1)(Nc1ccc(S(=O)(=O)Nc2cc(C)nc(C)n2)cc1)C(F)(F)F` (stereo not given), the TGI in test [19], in [1], in [2], in test [3], in [15] and in test [16] was greater than 100 µM throughout. The TGI in [4], in test [5], in test [6], in [7], in [8] and in test [9] was greater than 100 µM each time. Also, the TGI in [20], in [10], in [12], in test [17], in [18] and in test [13] was greater than 100 µM throughout. Moreover, in [14], the TGI was greater than 100 µM.
For the compound `CCc1ccc(Cc2ccc(CC)c(NC(=O)C(=O)C3NC(=S)NC3=O)c2CC)c(CC)c1NC(=O)C(=O)C1NC(=S)NC1=O` (stereo not given), the TGI in [19], in test [1], in test [2], in test [3], in test [15] and in test [16] was greater than 100 µM throughout. The TGI in [4], in [5], in test [6], in test [7], in test [8] and in test [10] was greater than 100 µM each time. Besides, the TGI in test [12], in test [17], in [13] and in test [14] was greater than 100 µM each time.
For the compound `N#Cc1sc2c(c1OC(=O)c1ccc(Cl)cc1Cl)c(=O)n(-c1ccccc1)c(=S)n2-c1ccccc1`, the TGI in [1] is greater than 100 µM; in test [2], greater than 100 µM; in test [3] it was greater than 100 µM; in [15] it was 59.5 µM; in test [16], greater than 100 µM; in test [4], 39.8 µM. For the same compound, the TGI in test [5] is 92.5 µM; in test [7], 75.8 µM; in test [8], greater than 100 µM; in [9], greater than 100 µM; in [20], 50.3 µM; in test [10], greater than 100 µM. The TGI in [12] is 45.9 µM; in test [17] it was 60 µM; in test [18], 75.1 µM; in test [13], greater than 100 µM; in [14], greater than 100 µM.
In the case of `COc1cccc(C=O)c1[O-].COc1cccc(C=O)c1[O-].[Zn+2]`, the TGI in [19], in test [1], in test [2], in test [3], in [15] and in test [16] was greater than 100 µM each time. Besides, the TGI in [4], in test [5], in test [6], in test [7], in [8] and in [10] was greater than 100 µM in each case. Moreover, the TGI in test [12] was greater than 100 µM; in test [17] it was greater than 100 µM; in test [13], greater than 100 µM; in test [14], 99.2 µM.
In the case of `CC(C)c1cccc(C(C)C)c1NC(=O)C(=O)C1CCC2=C(Sc3ccccc3N2)C1=O` (stereo not given), the TGI in test [19], in [1], in [2], in [3], in [15] and in [16] was greater than 100 µM in each case. For the same compound, the TGI in test [4], in test [5], in test [6], in test [7], in test [8] and in [10] was greater than 100 µM throughout. Also, the TGI in [12], in test [17], in [13] and in test [14] was greater than 100 µM each time.
For `CCc1cccc(C(C)CC)c1NC(=O)C(=O)Cc1nc2ccccc2o1` (stereo not given), the TGI in [19], in test [1], in test [2], in [3], in test [15] and in [16] was greater than 50 µM each time. Also, the TGI in test [4], in test [5], in [6], in test [7], in test [8] and in [10] was greater than 50 µM each time. For the same compound, the TGI in test [12] is greater than 42 µM; in [17], greater than 50 µM; in test [13], greater than 50 µM; in test [14] it was greater than 50 µM.
Take `Cc1nn(C(=O)Cc2ccccc2)c2c1C(c1ccc([N+](=O)[O-])cc1)SC(N)=N2` (stereo not given): the TGI in test [2], in test [3], in test [15], in [16], in [4] and in test [5] was greater than 100 µM throughout. For the same compound, the TGI in [6], in test [8], in test [9], in test [10], in test [11] and in test [12] was greater than 100 µM throughout. In addition, the TGI in test [17], in test [18], in test [13] and in test [14] was greater than 100 µM throughout.
For the compound `CN/N=C(\C)C(CN1CCCCC1)C(C1=C(O)c2ccccc2OC1)c1ccccc1` (stereo not given), the TGI in test [19], in [1], in test [2], in test [3], in test [15] and in test [16] was greater than 100 µM each time. Besides, the TGI in test [4], in test [5], in test [6], in test [7], in test [8] and in test [10] was greater than 100 µM throughout. Also, the TGI in test [12], in [17], in [13] and in [14] was greater than 100 µM throughout.
Turning to `Cc1nc(C)c(N2CCN(S(N)(=O)=O)CC2)c(=O)[nH]1`, the TGI in test [2], in test [3], in test [15], in test [16], in test [4] and in test [5] was greater than 100 µM in each case. In addition, the TGI in test [6], in test [7], in [8], in test [9], in test [20] and in test [10] was greater than 100 µM throughout. Further, the TGI in [12], in test [17], in [18], in test [13] and in test [14] was greater than 100 µM throughout.
In the case of `Oc1ccc(C2Oc3cc(O)cc4c3C2c2cc(O)cc3c2C(c2cc(O)cc5c2C4C(c2ccc(O)cc2)O5)C(c2ccc(O)cc2)O3)cc1` (stereo not given), the TGI was 12.3 µM in [19]; greater than 25 µM in [1]; greater than 25 µM in test [2]; greater than 25 µM in test [3]; greater than 25 µM in test [15]; 16.9 µM in test [16]. For the same compound, the TGI was greater than 25 µM in test [4]; greater than 25 µM in [5]; 20.7 µM in [6]; greater than 25 µM in test [7]; greater than 25 µM in test [8]; greater than 25 µM in test [10]. Moreover, the TGI in [12] is greater than 25 µM; in test [17], 24.3 µM; in test [13], 22.8 µM; in test [14] it was greater than 25 µM.
As for `N#Cc1ccc(OCCSCCCCCCCCCCSCCOc2ccc(C#N)cc2)cc1`, the TGI in test [19], in [1], in test [2], in [3], in [15] and in test [16] was greater than 100 µM in each case. For the same compound, the TGI in [4], in [5], in test [6], in [7], in test [8] and in test [10] was greater than 100 µM in each case. The TGI in [12], in [17], in [13] and in test [14] was greater than 100 µM throughout.
As for `O=C1NC(=S)NC(=O)C1=CC1CC1`, the TGI in [19], in test [1], in [2], in test [3], in test [15] and in test [16] was greater than 100 µM each time. The TGI in test [4], in test [5], in test [6], in [7], in test [8] and in test [10] was greater than 100 µM in each case. The TGI in test [12], in [17], in [13] and in [14] was greater than 100 µM in each case.
As for `O=C(CC1(O)C(=O)Nc2ccc([N+](=O)[O-])cc21)c1ccncc1` (stereo not given), the TGI in test [19], in test [1], in [2], in test [3], in test [15] and in test [16] was greater than 100 µM in each case. The TGI in test [4] was 29.3 µM; in test [5], greater than 100 µM; in test [6], 66.2 µM; in test [7], 66.1 µM; in [8], greater than 100 µM; in test [10] it was greater than 100 µM. In addition, the TGI in test [12] was 70.1 µM; in test [17], 68.6 µM; in test [13], greater than 100 µM; in [14], 32.9 µM.
Consider `CSc1ccc2c(cc1=O)C(NC(=O)c1ccccc1)CCc1cc(O)c(O)c(O)c1-2` (stereo not given), for which the TGI in [19] was greater than 100 µM; in [1] it was greater than 100 µM; in [2] it was greater than 100 µM; in test [3], greater than 100 µM; in test [15] it was 35.3 µM; in test [16] it was greater than 100 µM. In addition, the TGI in test [4] is 30 µM; in [5], greater than 100 µM; in test [6], greater than 100 µM; in [7], 26.2 µM; in test [8], greater than 100 µM; in [10], 36.2 µM. In addition, the TGI was 54.2 µM in test [12], 62.6 µM in test [17], greater than 100 µM in test [13] and greater than 100 µM in test [14].
